Earlier results, collected in patent publication US20090232916A1, “FOOD PRODUCTS FOR DIABETICS” (priority 2004, published 2009).

Test system: IGT subjects
Conditions: over a period of three years

For `CN(C)C(=N)N=C(N)N` [metformin], the “reduction of the risk of progressing from IGT to diabetes” value is listed as 31%.
